This note sets out measurements from US20250171437A1 (Agios Pharmaceuticals,Inc., priority 2022, published 2025).

The test deals with T1, human PAH with the R408W mutation (A375 R408W cells) (Homo sapiens, UniProt P00439, R408W).
T1 construct: expressed in transfected cells
T1 sequence (P00439 1-452 R408W): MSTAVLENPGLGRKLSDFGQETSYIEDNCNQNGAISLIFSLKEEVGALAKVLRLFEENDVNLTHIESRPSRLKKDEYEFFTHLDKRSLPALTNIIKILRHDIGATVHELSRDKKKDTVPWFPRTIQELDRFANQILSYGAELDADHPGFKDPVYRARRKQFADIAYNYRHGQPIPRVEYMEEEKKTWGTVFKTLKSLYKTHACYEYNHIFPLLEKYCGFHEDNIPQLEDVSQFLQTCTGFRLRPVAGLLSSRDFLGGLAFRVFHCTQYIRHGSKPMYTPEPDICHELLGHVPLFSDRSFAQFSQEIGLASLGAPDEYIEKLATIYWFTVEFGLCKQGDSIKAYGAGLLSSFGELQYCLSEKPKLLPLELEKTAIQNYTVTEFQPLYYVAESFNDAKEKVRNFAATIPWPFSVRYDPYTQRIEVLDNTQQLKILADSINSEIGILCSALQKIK
The test can be described thus: Cell Based Phenylalanine Flux Assay. Particulars: 24 hrs with compound, then 20 μM sepiapterin and 800 μM 13C9,15N-Phenylalanine for 4 hours, 13C-Tyrosine by LC-MS, average where tested multiple times. The method, boiled down:
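Stable R408W PAH A375 cells: 24 h compound pretreatment in duplicate, then 4 h with 800 μM isotope-labelled Phe and 20 μM sepiapterin. Labelled Tyr output by LC-MS; AC50 averaged where repeated.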

[1] abbreviates: A375 cells expressing R408W PAH.

The AC50 is the concentration at which the activity in the assay is half-maximal. `Cc1nc(C(C)O)oc1C(=O)N1CCc2[nH]cnc2C1c1nc2c(F)cccc2o1` (stereo not drawn): under setting [1], the AC50 is 1000 to 5000 nM.

As for `COCCCc1ccc2c(C(=O)N3CCc4[nH]cnc4C3c3nc4cc(F)ccc4o3)cnn2c1` (stereo not drawn), the AC50 under setting [1] lay within 1000 to 5000 nM.

Turning to `Cc1ccc2oc(C3c4nc[nH]c4CCN3C(=O)c3nc(C)nn3C)nc2c1` (stereo not drawn), the half-maximal activity concentration (AC50) under setting [1] was not below 5000 nM.

As to `O=C(c1cnco1)N1CCc2[nH]cnc2C1c1nc2c(F)c(F)ccc2o1` (stereo not drawn), the half-maximal activity concentration (AC50) under setting [1] is 1000 to 5000 nM.

Turning to `CN1CCN(c2nnc(C(=O)N3CCc4[nH]cnc4C3c3nc4cc(F)ccc4o3)o2)CC1` (stereo not drawn), the AC50 under setting [1] was not below 5000 nM.

`CC(C)(O)c1cc(C(=O)N2CCc3[nH]cnc3C2c2nc3cccc(F)c3o2)on1` (stereo not drawn): the concentration at half-maximal activity (AC50) under setting [1] fell in the range of 1000 to 5000 nM.

As for `O=C(c1cnn2cc(-c3ccccn3)ccc12)N1CCc2[nH]cnc2[C@H]1c1nc2cc(F)ccc2o1` [Example 81, (S)-(4-(5-fluorobenzo[d]oxazol-2-yl)-6,7-dihydro-1H-imidazo[4,5-c]pyridin-5(4H)-yl)(6-(pyridin-2-yl)pyrazolo[1,5-a]pyridin-3-yl)methanone], the AC50 (A375 R408W cells) is 500 to 1000 nM.

Take `CC(C)(O)c1nc(Br)c(C(=O)N2CCc3[nH]cnc3[C@@H]2c2nc3cc(F)ccc3o2)o1` [Example 123, (R)-(4-bromo-2-(2-hydroxypropan-2-yl)oxazol-5-yl)(4-(5-fluorobenzo[d]oxazol-2-yl)-6,7-dihydro-1H-imidazo[4,5-c]pyridin-5(4H)-yl)methanone]: under “A375 R408W cells”, the AC50 lay within 1000 to 5000 nM.

For `Cc1ccc2nc([C@@H]3c4nc[nH]c4CCN3C(=O)c3oc(C(C)(C)O)nc3C(F)F)oc2c1` [Example 315, (S)-(4-(difluoromethyl)-2-(2-hydroxypropan-2-yl)oxazol-5-yl)(4-(6-methylbenzo[d]oxazol-2-yl)-6,7-dihydro-1H-imidazo[4,5-c]pyridin-5(4H)-yl)methanone], the half-maximal activity concentration (AC50) (A375 R408W cells) was not above 500 nM.

As for `O=C(c1nnc(-c2ccccn2)o1)N1CCc2[nH]cnc2[C@@H]1c1nc2c(F)ccc(F)c2o1` [Example 519, (R)-(4-(4,7-difluorobenzo[d]oxazol-2-yl)-6,7-dihydro-1H-imidazo[4,5-c]pyridin-5(4H)-yl)(5-(pyridin-2-yl)-1,3,4-oxadiazol-2-yl)methanone], the AC50 (A375 R408W cells) fell in the range of 500 to 1000 nM.

`COc1ccc2oc(C3c4nc[nH]c4CCN3C(=O)c3cnn4cc(N5CCC(O)CC5)ccc34)nc2c1` (stereo not drawn): the concentration at half-maximal activity (AC50) under setting [1] is not below 5000 nM.

With `O=C(c1cnn2cc(N3CCC4(CC3)CC4)ccc12)N1CCc2[nH]cnc2C1c1nc2cc(F)ccc2o1` (stereo not drawn), the concentration at half-maximal activity (AC50) under setting [1] was not below 5000 nM.

Take `O=C(c1oc(-c2cnccn2)nc1C(F)F)N1CCc2[nH]cnc2[C@@H]1c1nc2cccc(F)c2o1` [Example 694, (R)-(4-(difluoromethyl)-2-(pyrazin-2-yl)oxazol-5-yl)(4-(7-fluorobenzo[d]oxazol-2-yl)-6,7-dihydro-1H-imidazo[4,5-c]pyridin-5(4H)-yl)methanone]: where the note is “A375 R408W cells”, the half-maximal activity concentration (AC50) is not above 500 nM.

As to `CC(C)(O)c1nc(C(F)F)c(C(=O)N2CCc3[nH]cnc3[C@H]2c2nc3c(OC(F)(F)F)cccc3o2)o1` [Example 533, (S)-(4-(difluoromethyl)-2-(2-hydroxypropan-2-yl)oxazol-5-yl)(4-(4-(trifluoromethoxy)benzo[d]oxazol-2-yl)-6,7-dihydro-1H-imidazo[4,5-c]pyridin-5(4H)-yl)methanone], the AC50 (A375 R408W cells) was not above 500 nM.

Turning to `Cn1nc(Br)nc1C(=O)N1CCc2[nH]cnc2[C@H]1c1nc2c(F)cccc2o1` [Example 471, (S)-(3-bromo-1-methyl-1H-1,2,4-triazol-5-yl)(4-(4-fluorobenzo[d]oxazol-2-yl)-6,7-dihydro-1H-imidazo[4,5-c]pyridin-5(4H)-yl)methanone], the AC50 (A375 R408W cells) lay within 500 to 1000 nM.

For the compound `O=C(c1nnc(-c2ccccn2)o1)N1CCc2[nH]cnc2[C@@H]1c1nc2ccc(F)c(F)c2o1` [Example 545, (R)-(4-(6,7-difluorobenzo[d]oxazol-2-yl)-6,7-dihydro-1H-imidazo[4,5-c]pyridin-5(4H)-yl)(5-(pyridin-2-yl)-1,3,4-oxadiazol-2-yl)methanone], the AC50 (A375 R408W cells) was 1000 to 5000 nM.

On to `Cn1cnnc1C(=O)N1CCc2[nH]cnc2C1c1nc2cc(F)ccc2o1` (stereo not drawn), for which the AC50 under setting [1] was in the range of 1000 to 5000 nM.

Regarding `CC(C)(O)Cn1cc(C(=O)N2CCc3[nH]cnc3C2c2nc3cc(F)ccc3o2)cn1` (stereo not drawn), the concentration at half-maximal activity (AC50) under setting [1] was not below 5000 nM.

As for `C[C@H](O)c1nc(C(F)F)c(C(=O)N2CCc3[nH]cnc3[C@@H]2c2nc3cccc(F)c3o2)o1` [Example 244, (4-(difluoromethyl)-2-((S)-1-hydroxyethyl)oxazol-5-yl)((R)-4-(7-fluorobenzo[d]oxazol-2-yl)-6,7-dihydro-1H-imidazo[4,5-c]pyridin-5(4H)-yl)methanone], where the note is “A375 R408W cells”, the AC50 fell in the range of 500 to 1000 nM.

As to `Cn1ncnc1C(=O)N1CCc2[nH]cnc2C1c1nc2cccc(F)c2o1` (stereo not drawn), the AC50 under setting [1] fell in the range of 1000 to 5000 nM.

With `O=C(c1cnn2cc(-c3ccccn3)ccc12)N1CCc2[nH]cnc2[C@@H]1c1nc2cccc(F)c2o1` [Example 452, (R)-(4-(7-fluorobenzo[d]oxazol-2-yl)-6,7-dihydro-1H-imidazo[4,5-c]pyridin-5(4H)-yl)(6-(pyridin-2-yl)pyrazolo[1,5-a]pyridin-3-yl)methanone], the AC50 (A375 R408W cells) lay within 1000 to 5000 nM.

In the case of `Cn1cc(-c2ncc(C(=O)N3CCc4[nH]cnc4C3c3nc4ccc(Br)cc4o3)o2)cn1` (stereo not drawn), the concentration at half-maximal activity (AC50) under setting [1] was not below 5000 nM.

In the case of `Cc1cccc2nc([C@@H]3c4nc[nH]c4CCN3C(=O)c3oc(C(C)(C)O)nc3C(F)F)oc12` [Example 392, (S)-(4-(difluoromethyl)-2-(2-hydroxypropan-2-yl)oxazol-5-yl)(4-(7-methylbenzo[d]oxazol-2-yl)-6,7-dihydro-1H-imidazo[4,5-c]pyridin-5(4H)-yl)methanone], the AC50 (A375 R408W cells) was not above 500 nM.

On to `O=C(c1ocnc1C(F)F)N1CCc2[nH]cnc2[C@@H]1c1nc2cccc(Cl)c2o1` [Example 426, (R)-(4-(7-chlorobenzo[d]oxazol-2-yl)-6,7-dihydro-1H-imidazo[4,5-c]pyridin-5(4H)-yl)(4-(difluoromethyl)oxazol-5-yl)methanone], for which the half-maximal activity concentration (AC50) (A375 R408W cells) is not above 500 nM.

Consider `O=C(CC1(O)CCC1)N1CCc2[nH]cnc2[C@@H]1c1nc2cc(F)ccc2o1` [Example 56, (R)-1-(4-(5-fluorobenzo[d]oxazol-2-yl)-6,7-dihydro-1H-imidazo[4,5-c]pyridin-5(4H)-yl)-2-(1-hydroxycyclobutyl)ethanone], for which the concentration at half-maximal activity (AC50) (A375 R408W cells) lay in the range of 1000 to 5000 nM.

As to `COc1cccc2oc([C@@H]3c4nc[nH]c4CCN3C(=O)c3nc(C(F)F)nn3C)nc12` [Example 601, (S)-(3-(difluoromethyl)-1-methyl-1H-1,2,4-triazol-5-yl)(4-(4-methoxybenzo[d]oxazol-2-yl)-6,7-dihydro-1H-imidazo[4,5-c]pyridin-5(4H)-yl)methanone], the AC50 (A375 R408W cells) is 500 to 1000 nM.

For the compound `Cn1cc(-c2ccc3c(C(=O)N4CCc5[nH]cnc5[C@H]4c4nc5cc(F)ccc5o4)cnn3c2)cn1` [Example 71, (S)-(4-(5-fluorobenzo[d]oxazol-2-yl)-6,7-dihydro-1H-imidazo[4,5-c]pyridin-5(4H)-yl)(6-(1-methyl-1H-pyrazol-4-yl)pyrazolo[1,5-a]pyridin-3-yl)methanone], the concentration at half-maximal activity (AC50) (A375 R408W cells) is 500 to 1000 nM.

For the compound `O=C(c1oc(-c2ccncn2)nc1C(F)F)N1CCc2[nH]cnc2[C@@H]1c1nc2cc(F)ccc2o1` [Example 525, (R)-(4-(difluoromethyl)-2-(pyrimidin-4-yl)oxazol-5-yl)(4-(5-fluorobenzo[d]oxazol-2-yl)-6,7-dihydro-1H-imidazo[4,5-c]pyridin-5(4H)-yl)methanone], the concentration at half-maximal activity (AC50) (A375 R408W cells) lay within 1000 to 5000 nM.

In the case of `Cc1ccc2oc([C@@H]3c4nc[nH]c4CCN3C(=O)c3oc(C(C)(C)O)nc3C)nc2c1` [Example 331, (S)-(2-(2-hydroxypropan-2-yl)-4-methyloxazol-5-yl)(4-(5-methylbenzo[d]oxazol-2-yl)-6,7-dihydro-1H-imidazo[4,5-c]pyridin-5(4H)-yl)methanone], the AC50 (A375 R408W cells) lay in the range of 500 to 1000 nM.

Take `O=C(c1oc(-c2ccccn2)nc1C(F)F)N1CCc2[nH]cnc2[C@H]1c1nc2cc(F)ccc2o1` [Example 85, (S)-(4-(difluoromethyl)-2-(pyridin-2-yl)oxazol-5-yl)(4-(5-fluorobenzo[d]oxazol-2-yl)-6,7-dihydro-1H-imidazo[4,5-c]pyridin-5(4H)-yl)methanone]: the concentration at half-maximal activity (AC50) (A375 R408W cells) was not above 500 nM.

As for `O=C(c1cnc(-c2ccccn2)s1)N1CCc2[nH]cnc2[C@H]1c1nc2cc(F)ccc2o1` [Example 5, (S)-(4-(5-fluorobenzo[d]oxazol-2-yl)-6,7-dihydro-1H-imidazo[4,5-c]pyridin-5(4H)-yl)(2-(pyridin-2-yl)thiazol-5-yl)methanone], under “A375 R408W cells”, the concentration at half-maximal activity (AC50) was not above 500 nM.

In the case of `O=C(c1nnc(-c2ccccn2)o1)N1CCc2[nH]cnc2[C@@H]1c1nc2c(F)c(F)ccc2o1` [Example 630, (R)-(4-(4,5-difluorobenzo[d]oxazol-2-yl)-6,7-dihydro-1H-imidazo[4,5-c]pyridin-5(4H)-yl)(5-(pyridin-2-yl)-1,3,4-oxadiazol-2-yl)methanone], the AC50 (A375 R408W cells) was in the range of 1000 to 5000 nM.

Take `Cn1nccc1-c1nnc(C(=O)N2CCc3[nH]cnc3[C@H]2c2nc3cc(F)ccc3o2)o1` [Example 131, (S)-(4-(5-fluorobenzo[d]oxazol-2-yl)-6,7-dihydro-1H-imidazo[4,5-c]pyridin-5(4H)-yl)(5-(1-methyl-1H-pyrazol-5-yl)-1,3,4-oxadiazol-2-yl)methanone]: where the note is “A375 R408W cells”, the concentration at half-maximal activity (AC50) lay within 500 to 1000 nM.
